Experimental data taken from ChEMBL document CHEMBL1649513, “Population pharmacokinetics of acyclovir in children and young people with malignancy after administration of intravenous acyclovir or oral valacyclovir” (Antimicrob Agents Chemother, 2009).

Legend:
[1] = Bioavailability in children and young patient with malignancy; format: ADME, organism-based; details: human, in vivo
[2] = Bioavailability in immunocompromized children at […], po administered every 12 hrs; format: ADME, organism-based; details: human, in vivo

bioavailability [1]: 60% | bioavailability [2]: 48%
SMILES: Nc1nc2c(ncn2COCCO)c(=O)[nH]1 [ACYCLOVIR]
